Residues, ends and D or L forms follow the SMILES beside them. *: point of attachment. Cbz = O=C(OCc1ccccc1)*
Tests used:
AR [1] = assay: Western blot of AR protein levels, VCaP cells; format: cell-based; details: TSA or increasing concentrations of CDDO-Imidazole (24 hours), compared with sulforaphane results
AR [2] = assay: Western blot of AR protein levels, LNCaP cells; format: cell-based; details: LNCaP cells
Her2Neu protein = details: breast cancer cells; through proteasomal degradation; cited from earlier work
HDAC6 [3] = assay: Western blot of HDAC6 protein levels, LNCaP cells; format: cell-based; details: LNCaP cells
acetylated tubulin = assay: Western blot of acetylated tubulin, VCaP cells; format: cell-based; details: increasing concentrations of CDDO-Imidazole, 24 hours
Description: (§1) The vehicle sample was set to 1.

acetylated alpha-tubulin = assay: Western blot of acetylated alpha-tubulin, LNCaP cells; format: cell-based; details: LNCaP cells; increasing concentrations of CDDO-Imidazole, 24 hours
Experimental: as §1
LNCaP cells were transiently transfected with either a siRNA sequence complementary to the luciferase gene ([…]; SEQ ID NO: 8) or to HDAC6 ([…]; SEQ ID NO: 9) using DharmaFECT 3 transfection reagent for a final concentration of 100 nM (Dharmacon, Lafayette, Colo.). At 48, 72, and 96 hours post-transfection, cells were harvested. Levels of protein expression by Western blot were quantified.

HDAC6 [4] = assay: Western blot of HDAC6 protein levels, VCaP cells; format: cell-based; details: increasing concentrations of CDDO-Imidazole, 24 hours
Description: as §1

AR [5] = assay: Real-time PCR of AR gene expression, LNCaP cells; format: cell-based; details: increasing doses of sulforaphane, or TSA, vehicle set to 1
Description: (§2) All samples were run in triplicate. The vehicle-treated sample was set to 1.

AR [6] = assay: Real-time PCR of AR gene expression, VCaP cells; format: cell-based; details: 24 hours, increasing doses of sulforaphane, or TSA, vehicle set to 1
Description: as §2

AR [7] = assay: Western blot of AR protein levels, LNCaP cells; format: cell-based
Experimental: Immunoprecipitation and immunoblotting were performed as described (Qian et al., Clin. Cancer Res. 12:634-42, 2006). The following antibodies used in immunoblotting or immunoprecipitations (indicated dilutions are for immunoblotting): AR (1:1000, #06-680 Upstate, Billerica, Mass.); acetylated lysine (#05-515 Upstate, Billerica, Mass.); acetylated tubulin (1:2000, #T6793 Sigma, St. Louis, Mo.); alpha-tubulin (1:10,000, #T6074 Sigma, St. Louis, Mo.); beta-actin (1:5000, #A5441 Sigma, St. Louis, Mo.); ERG-1/2/3, (1:5000, #sc-354X Santa Cruz, Santa Cruz, Calif.); FLAG epitope (#F7425 Sigma, St. Louis, Mo.); GAPDH (1:5000, #sc-32233 Santa Cruz, Santa Cruz, Calif.); HDAC6 (1:1000, #sc-11420 Santa Cruz); HSP90 (1:1000, #SPA-840 Stressgen, Ann Arbor, Mich.); mouse IgG (#sc-2025 Santa Cruz, Santa Cruz, Calif.). The following secondary antibodies were used: ECL-conjugated anti-mouse IgG, (1:5000, #A6782 Sigma, St. Louis, Mo.); ECL-conjugated anti-rabbit IgG (1:3000, #NA934 Amersham, Piscataway, N.J. or 1:10,000, #sc-2004 Santa Cruz, Santa Cruz, Calif.). X-ray exposures were scanned as uncompressed images and bands were quantified by densitometry with Quantity One software (Bio-Rad, Hercules, Calif.). Intensity values were normalized to those of the endogenous controls. The vehicle sample was set to 1. Enrichment was calculated as: (intensity IP/intensity input)/(intensity IgG/intensity input) or intensity IP/input (FIG. 1B).
LNCaP cells were treated with sulforaphane in a dose-response (5 μM to 20 μM) and time-course (12 and 24 hours) manner to investigate the effect of HDAC6 inhibition on AR protein levels. Western blotting was performed as described in Example 1. […]

## CC1(C)CC[C@]2(C(=O)n3ccnc3)CC[C@]3(C)[C@H](C(=O)C=C4[C@@]5(C)C=C(C#N)C(=O)C(C)(C)[C@@H]5CC[C@]43C)[C@@H]2C1 [CDDO-Imidazole]
AR [1]
  AR protein levels: reduced AR protein levels
AR [2]; TSA or increasing concentrations of CDDO-Imidazole (24 hours), compared with sulforaphane results
  AR protein levels: reduced AR protein levels
Her2Neu protein
  Her2Neu protein levels: deplete Her2Neu protein levels
HDAC6 [3]; increasing concentrations of CDDO-Imidazole, 24 hours
  HDAC6 protein: depletes HDAC6 in a dose-dependent manner
Acetylated tubulin
  tubulin acetylation: increased tubulin acetylation
Acetylated alpha-tubulin
  tubulin acetylation: increased tubulin acetylation
HDAC6 [4]
  HDAC6 protein: depletes HDAC6 in a dose-dependent manner

## CC(C)C[C@@H](C=O)NC(=O)[C@H](CC(C)C)NC(=O)[C@H](CC(C)C)NC(=O)OCc1ccccc1 [MG132] (Cbz-Leu-Leu-Leu-aldehyde)
AR [2]; 24 hours, 10 μM MG132 versus vehicle
  AR protein levels, MG132 alone: did not change AR protein levels

## CC(/C=C/C(=O)NO)=C\[C@@H](C)C(=O)c1ccc(N(C)C)cc1 [TSA, trichostatin A]
AR [5]
  AR transcripts: suppressed AR transcripts
AR [6]
  AR transcripts: suppressed AR transcripts
AR [7]; 24 hours, sulforaphane 20 μM or 300 nM TSA with 10 μM MG132
  AR steady state level with simultaneous MG132 treatment: restored the AR steady state level close to that seen in the vehicle-treated control
AR [7]; 24 hours, sulforaphane 20 μM or 300 nM TSA, versus vehicle-treated cells
  AR protein in the absence of MG132: dramatic reductions
AR [7]; sulforaphane 15 μM and 20 μM, TSA
  AR protein levels at 24 hours: recovered
HDAC6 [3]; 16 hours, 300 nM TSA without or with 20 μM MG132
  HDAC6 protein levels: minimal effects

Reference: patent publication US20110195432A1, “METHODS FOR THE SELECTION OF THERAPEUTIC TREATMENTS FOR CANCER” (priority 2008, published 2011)
